According to US5502036A, “Antiherpes pentapeptide derivatives having a substituted aspartic acid side chain” (priority 1989, dated 1996):
pIC50: −log10 of the molar value. Like-named read-outs stand apart in the source and are kept apart here. Where a SMILES comes first, the peptide text is derived from it. [ ]: non-standard residue; d: D form. The star is where a group is joined. Gly(1-COOH-cBu) = N[C@H](C(=O)O)C1(C(=O)O)CCC1; Hydrocinnamoyl = O=C(CCc1ccccc1)*; Pentanoyl(4-Me) = CC(C)CCC(=O)*; O(2S-octyl) = CCCCCC[C@H](C)O*; NHPhenethyl = c1ccc(CCN*)cc1; Tle = CC(C)(C)[C@H](N)C(=O)O; NMeV = CN[C@H](C(=O)O)C(C)C; Pyrrolidide = C1CCN(*)C1; NHIsopentyl = CC(C)CCN*; Boc = CC(C)(C)OC(=O)*; X6 = CC(C)C[C@H](C)N*; X2 = CCCCCCCCCCCCO*; X4 = CCCCCCCCN(C)*

Biological target: T1, HSV-1 ribonucleotide reductase (partially purified) (Human herpesvirus 1, UniProt P08543)
T1 construct: obtained from quiescent BHK-21/C13 cells infected with strain F HSV-1 virus; endogenous in cells; host or cells: quiescent BHK-21/C13 cells infected with HSV-1 strain F; enzyme partially purified (Cohen et al., J. Gen. Virol. 66, 733 (1985))
T1 sequence (P08543 whole entry): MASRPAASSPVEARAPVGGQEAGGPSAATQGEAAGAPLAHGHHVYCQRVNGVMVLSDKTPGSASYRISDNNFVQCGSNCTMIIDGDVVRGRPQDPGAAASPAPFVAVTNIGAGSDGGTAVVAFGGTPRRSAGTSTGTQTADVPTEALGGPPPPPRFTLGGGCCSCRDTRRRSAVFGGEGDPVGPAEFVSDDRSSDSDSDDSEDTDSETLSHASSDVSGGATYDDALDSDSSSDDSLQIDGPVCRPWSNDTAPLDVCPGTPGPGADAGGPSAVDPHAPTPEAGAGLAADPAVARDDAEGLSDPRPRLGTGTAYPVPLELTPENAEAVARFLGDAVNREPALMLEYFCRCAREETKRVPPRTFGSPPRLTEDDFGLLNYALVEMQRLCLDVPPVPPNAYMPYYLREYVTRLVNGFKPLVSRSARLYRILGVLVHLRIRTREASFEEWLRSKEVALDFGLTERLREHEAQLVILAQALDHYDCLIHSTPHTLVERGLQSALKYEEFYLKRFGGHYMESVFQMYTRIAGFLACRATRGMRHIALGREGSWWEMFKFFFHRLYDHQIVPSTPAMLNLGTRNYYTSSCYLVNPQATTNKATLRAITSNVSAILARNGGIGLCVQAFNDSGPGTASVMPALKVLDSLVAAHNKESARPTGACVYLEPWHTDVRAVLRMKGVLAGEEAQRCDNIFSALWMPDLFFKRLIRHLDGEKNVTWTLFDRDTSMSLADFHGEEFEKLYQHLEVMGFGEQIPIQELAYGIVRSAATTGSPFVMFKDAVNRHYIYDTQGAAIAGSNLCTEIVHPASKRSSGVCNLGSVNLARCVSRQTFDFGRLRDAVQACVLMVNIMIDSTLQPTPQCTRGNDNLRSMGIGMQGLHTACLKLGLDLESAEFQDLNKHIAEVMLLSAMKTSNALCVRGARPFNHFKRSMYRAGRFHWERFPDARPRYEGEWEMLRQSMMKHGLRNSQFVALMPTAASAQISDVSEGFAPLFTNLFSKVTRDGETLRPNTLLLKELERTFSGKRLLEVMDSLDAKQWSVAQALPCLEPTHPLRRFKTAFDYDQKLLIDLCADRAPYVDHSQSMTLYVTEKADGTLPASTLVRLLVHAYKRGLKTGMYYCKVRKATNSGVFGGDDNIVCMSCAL
Assay: biochemical
Assay type: biochemical
Description: b) Assay and Results for Exemplified Peptides

CC[C@H](C)[C@H](NC(=O)[C@H](C(C)C)N(C)C(=O)OC(C)(C)C)C(=O)N[C@@H](CC(=O)NCCc1ccccc1)C(=O)N[C@@H](CC(=O)O)C(=O)N[C@@H](CC(C)C)C(=O)O [Entry 24, Boc--N--Me--Val--Ile--Asp(NHCH2 CH2 Ph)--Asp--Leu--OH] (Boc-[NMeV]ID(NHPhenethyl)DL-OH)
pIC50 (Table 4, concentration producing 50% of the maximal inhibition of enzyme activity, mean of four assays, read-out: IC50): 5.80

CCCCCCCCCCCCOC(=O)C[C@H](NC(=O)[C@@H](NC(=O)[C@H](C(C)C)N(C)C(=O)CCc1ccccc1)[C@@H](C)CC)C(=O)N[C@@H](CC(=O)O)C(=O)N[C@@H](CC(C)C)C(=O)O [Entry 29, PhCH2 CH2 CO--N--Me--Val--Ile--Asp(dodecyloxy)-Asp--Leu--OH] (Hydrocinnamoyl-[NMeV]ID(X2)DL-OH)
pIC50: 5.38

CCCCCC[C@H](C)OC(=O)C[C@H](NC(=O)[C@@H](NC(=O)[C@H](C(C)C)N(C)C(=O)CCC(C)C)[C@@H](C)CC)C(=O)N[C@@H](CC(=O)O)C(=O)N[C@@H](CC(C)C)C(=O)O [Entry 30, 4-Methylpentanoyl-N--Me--Val--Ile--Asp 1(S)-methylheptyloxy!-Asp--Leu--OH] ({Pentanoyl(4-Me)}-[NMeV]ID(O(2S-octyl))DL-OH)
pIC50: 5.77

CCCCCC[C@H](C)OC(=O)C[C@H](NC(=O)[C@@H](NC(=O)[C@H](C(C)C)N(C)C(=O)CCc1ccccc1)[C@@H](C)CC)C(=O)N[C@@H](CC(=O)O)C(=O)N[C@@H](CC(C)C)C(N)=O [Entry 31, PhCH2 CH2 CO--N--Me--Val--Ile--Asp 1(S)-methylheptyloxy!-Asp--Leu--NH2] (Hydrocinnamoyl-[NMeV]ID(O(2S-octyl))DL-NH2)
pIC50: 5.72

CCCCCCCCN(C)C(=O)C[C@H](NC(=O)[C@@H](NC(=O)[C@H](C(C)C)N(C)C(=O)CCc1ccccc1)[C@@H](C)CC)C(=O)N[C@@H](CC(=O)O)C(=O)N[C@@H](CC(C)C)C(=O)O [Entry 32, PhCH2 CH2 CO--N--Me--Val--Ile--Asp NMe(octyl)!-Asp--Leu--OH] (Hydrocinnamoyl-[NMeV]ID(X4)DL-OH)
pIC50: 6.59

CC(C)C[C@H](NC(=O)[C@@H](NC(=O)[C@H](CC(=O)N1CCCC1)NC(=O)[C@@H](NC(=O)[C@H](C(C)C)N(C)C(=O)CCc1ccccc1)C(C)(C)C)C1(C(=O)O)CCC1)C(=O)O [Entry 33, PhCH2 CH2 CO--N--Me--Val--Tbg--Asp(pyrrolidino)-Asp(cyBu)-Leu--OH] (Hydrocinnamoyl-[NMeV][Tle]D(Pyrrolidide)[Gly(1-COOH-cBu)]L-OH)
pIC50: 7.22

CCCCCC[C@H](C)OC(=O)C[C@H](NC(=O)[C@@H](NC(=O)[C@H](C(C)C)N(C)C(=O)CCc1ccccc1)[C@@H](C)CC)C(=O)N[C@@H](CC(=O)O)C(=O)N[C@@H](CC(C)C)C(=O)OC [Entry 37, PhCH2 CH2 CO--N--Me--Val--Ile--Asp 1(S)-methylheptyloxy!-Asp--Leu--OCH3] (Hydrocinnamoyl-[NMeV]ID(O(2S-octyl))DL-OMe)
pIC50: 5.70

CC[C@H](C)[C@H](NC(=O)[C@H](C(C)C)N(C)C(=O)CCc1ccccc1)C(=O)N[C@@H](CC(=O)N1CCCC1)C(=O)N[C@@H](CC(=O)O)C(=O)NCCC(C)C [Entry 38, PhCH2 CH2 CO--N--Me--Val--Ile--Asp(pyrrolidino)-Asp--NHCH2 CH2 CH(CH3)2] (Hydrocinnamoyl-[NMeV]ID(Pyrrolidide)D-NHIsopentyl)
pIC50: 5.89

CC[C@H](C)[C@H](NC(=O)[C@H](C(C)C)N(C)C(=O)CCc1ccccc1)C(=O)N[C@@H](CC(=O)N1CCCC1)C(=O)N[C@@H](CC(=O)O)C(=S)N[C@@H](CC(C)C)C(=O)O [Entry 40, PhCH2 CH2 CO--N--Me--Val--Ile--Asp(pyrrolidino)-.PSI. CSNH!Asp--Leu--OH]
pIC50: 6.80

CC[C@H](C)[C@H](NC(=O)[C@H](C(C)C)N(C)C(=O)CCc1ccccc1)C(=O)N[C@@H](CC(=O)N1CCCC1)C(=O)N[C@@H](CC(=O)O)C(=O)N[C@@H](C)CC(C)C [Entry 41, PhCH2 CH2 CO--N--Me--Val--Ile--Asp(pyrrolidino)-Asp--NHCH(CH3)CH2 CH(CH3)2] (Hydrocinnamoyl-[NMeV]ID(Pyrrolidide)D-X6)
pIC50: 5.59
